Test results: PubChem BioAssay AID248 (DTP/NCI, 2004)
“And” between values parts separate entries of the source, which are not always exact repeats. Equal entries are not always repeated. Toxic doses and inconclusive results are not listed.

Test system: L1210 leukemia ip in BDF1 mice, survival T/C
Experiment: NCI In Vivo Anticancer Drug Screen. Data for tumor model L1210 Leukemia (intraperitoneal) in B6D2F1 (BDF1) mice
Settings: endpoint: mean survival time, higher = longer survival
Summary of the method: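 Each compound was tested against a transplantable tumor grown in mice. The endpoint was survival, with treated animals benchmarked against vehicle controls as a simple ratio.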

With `COC12C(COC(N)=O)C3=C(C(=O)C(C)=C(N)C3=O)N1CC1C2N1C` (stereo not drawn) the T/C (dose: 0.37 mg/kg/injection, schedule: Q01DX009 (ip), vehicle: saline) was 106 % of control, the T/C (dose: 0.7 mg/kg/injection, schedule: Q## X040 (ip), vehicle: saline) was 106 % of control and the T/C (dose: 0.75 mg/kg/injection, schedule: Q01DX009 (ip), vehicle: saline) was 117 % of control. The T/C (dose: 1.25 mg/kg/injection, schedule: Q01DX Z (ip), vehicle: carboxymethylcellulose (CMC)) was 93 % of control, the T/C (dose: 1.4 mg/kg/injection, schedule: Q## X040 (ip), vehicle: saline) was 118 % of control and the T/C (dose: 1.5 mg/kg/injection, schedule: Q01DX009 (ip), vehicle: saline) was 121 % of control. The T/C (dose: 1.5 mg/kg/injection, schedule: Q## X003 (ip), vehicle: saline) was 117 % of control, the T/C (dose: 2.0 mg/kg/injection, schedule: Q01DX009 (ip), vehicle: Klucel (hydroxypropylcellulose) (HPC)) was 120 % of control and the T/C (dose: 2.0 mg/kg/injection, schedule: Q01DX009 (ip), vehicle: saline) was 165 % of control. For the same molecule, the T/C (dose: 2.0 mg/kg/injection, schedule: Q01DX009 (sc), vehicle: saline) was 109 % of control, the T/C (dose: 2.0 mg/kg/injection, schedule: Q01DX015 (ip), vehicle: saline) was 115 % of control and 116 % of control and 121 % of control and the T/C (dose: 2.2 mg/kg/injection, schedule: Q01DX007 (ip), vehicle: carboxymethylcellulose (CMC)) was 123 % of control. For the same molecule, the T/C (dose: 2.5 mg/kg/injection, schedule: Q01DX Z (ip), vehicle: carboxymethylcellulose (CMC)) was 97 % of control, the T/C (dose: 3.0 mg/kg/injection, schedule: Q01DX001 (ip), vehicle: saline) was 116 % of control and the T/C (dose: 3.0 mg/kg/injection, schedule: Q## X003 (ip), vehicle: saline) was 112 % of control. The T/C (dose: 3.0 mg/kg/injection, schedule: Q## X008 (ip), vehicle: saline) was 116 % of control, the T/C (dose: 3.0 mg/kg/injection, schedule: Q## X040 (ip), vehicle: saline) was 119 % of control and the T/C (dose: 3.35 mg/kg/injection, schedule: Q01DX015 (ip), vehicle: carboxymethylcellulose (CMC)) was 121 % of control. The T/C (dose: 3.5 mg/kg/injection, schedule: Q01DX015 (ip), vehicle: saline) was 123 % of control, the T/C (dose: 4.0 mg/kg/injection, schedule: Q## X024 (ip), vehicle: saline) was 103 % of control and the T/C (dose: 4.4 mg/kg/injection, schedule: Q## X004 (ip), vehicle: saline) was 114 % of control. For the same molecule, the T/C (dose: 5.0 mg/kg/injection, schedule: Q01DX007 (ip), vehicle: carboxymethylcellulose (CMC)) was 156 % of control, the T/C (dose: 5.0 mg/kg/injection, schedule: Q01DX009 (oral), vehicle: saline) was 122 % of control and the T/C (dose: 5.0 mg/kg/injection, schedule: Q01DX015 (ip), vehicle: saline) was 122 % of control. The T/C (dose: 5.0 mg/kg/injection, schedule: Q01DX Z (ip), vehicle: carboxymethylcellulose (CMC)) was 123 % of control, the T/C (dose: 6.0 mg/kg/injection, schedule: Q01DX009 (ip), vehicle: saline) was 151 % of control and 164 % of control and the T/C (dose: 6.0 mg/kg/injection, schedule: Q01DX015 (ip), vehicle: carboxymethylcellulose (CMC)) was 156 % of control. The T/C (dose: 6.0 mg/kg/injection, schedule: Q## X008 (ip), vehicle: saline) was 112 % of control, the T/C (dose: 6.7 mg/kg/injection, schedule: Q## X004 (ip), vehicle: saline) was 121 % of control and the T/C (dose: 7.5 mg/kg/injection, schedule: Q01DX007 (ip), vehicle: carboxymethylcellulose (CMC)) was 158 % of control. The T/C (dose: 7.5 mg/kg/injection, schedule: Q01DX015 (ip), vehicle: carboxymethylcellulose (CMC)) was 163 % of control, the T/C (dose: 8.0 mg/kg/injection, schedule: Q01DX009 (ip), vehicle: saline) was 171 % of control and 176 % of control and the T/C (dose: 8.0 mg/kg/injection, schedule: Q01DX015 (ip), vehicle: saline) was 150 % of control and 153 % of control. For the same molecule, the T/C (dose: 8.0 mg/kg/injection, schedule: Q## X008 (ip), vehicle: saline) was 104 % of control, the T/C (dose: 8.0 mg/kg/injection, schedule: Q## X016 (ip), vehicle: saline) was 96 % of control and the T/C (dose: 8.0 mg/kg/injection, schedule: Q## X024 (ip), vehicle: saline) was 111 % of control. For the same molecule, the T/C (dose: 10.0 mg/kg/injection, schedule: Q01DX Z (ip), vehicle: carboxymethylcellulose (CMC)) was 151 % of control and 169 % of control, the T/C (dose: 11.25 mg/kg/injection, schedule: Q01DX007 (ip), vehicle: carboxymethylcellulose (CMC)) was 150 % of control and the T/C (dose: 12.0 mg/kg/injection, schedule: Q01DX009 (ip), vehicle: saline) was 153 % of control and 167 % of control. For the same molecule, the T/C (dose: 12.0 mg/kg/injection, schedule: Q02DX008 (ip), vehicle: saline) was 154 % of control, the T/C (dose: 15.0 mg/kg/injection, schedule: Q01DX001 (ip), vehicle: saline) was 123 % of control and the T/C (dose: 15.0 mg/kg/injection, schedule: Q## X003 (ip), vehicle: saline) was 162 % of control. The T/C (dose: 15.0 mg/kg/injection, schedule: Q## X004 (ip), vehicle: saline) was 150 % of control, the T/C (dose: 16.0 mg/kg/injection, schedule: Q02DX008 (ip), vehicle: saline) was 158 % of control and the T/C (dose: 16.0 mg/kg/injection, schedule: Q## X008 (ip), vehicle: saline) was 112 % of control. For the same molecule, the T/C (dose: 16.0 mg/kg/injection, schedule: Q## X016 (ip), vehicle: saline) was 115 % of control, the T/C (dose: 16.0 mg/kg/injection, schedule: Q## X040 (ip), vehicle: saline) was 167 % of control and the T/C (dose: 20.0 mg/kg/injection, schedule: Q01DX001 (ip), vehicle: carboxymethylcellulose (CMC)) was 165 % of control. The T/C (dose: 20.0 mg/kg/injection, schedule: Q01DX001 (sc), vehicle: saline) was 109 % of control, the T/C (dose: 20.0 mg/kg/injection, schedule: Q## X003 (ip), vehicle: saline) was 192 % of control and the T/C (dose: 20.0 mg/kg/injection, schedule: Q## X032 (ip), vehicle: saline) was 124 % of control. The T/C (dose: 22.5 mg/kg/injection, schedule: Q## X004 (ip), vehicle: saline) was 167 % of control, the T/C (dose: 24.0 mg/kg/injection, schedule: Q01DX001 (ip), vehicle: saline) was 154 % of control and the T/C (dose: 26.0 mg/kg/injection, schedule: Q01DX001 (ip), vehicle: carboxymethylcellulose (CMC)) was 151 % of control. For the same molecule, the T/C (dose: 27.0 mg/kg/injection, schedule: Q01DX001 (oral), vehicle: saline) was 116 % of control, the T/C (dose: 30.0 mg/kg/injection, schedule: Q01DX001 (ip), vehicle: carboxymethylcellulose (CMC)) was 157 % of control and the T/C (dose: 30.0 mg/kg/injection, schedule: Q01DX001 (ip), vehicle: saline) was 150 % of control and 162 % of control. For the same molecule, the T/C (dose: 30.0 mg/kg/injection, schedule: Q01DX001 (sc), vehicle: saline) was 121 % of control, the T/C (dose: 30.0 mg/kg/injection, schedule: Q01DX Z (ip), vehicle: carboxymethylcellulose (CMC)) was 95 % of control and the T/C (dose: 30.0 mg/kg/injection, schedule: Q## X003 (ip), vehicle: saline) was 182 % of control. For the same molecule, the T/C (dose: 32.0 mg/kg/injection, schedule: Q02DX008 (ip), vehicle: saline) was 111 % of control, the T/C (dose: 32.0 mg/kg/injection, schedule: Q## X008 (ip), vehicle: saline) was 185 % of control and the T/C (dose: 32.0 mg/kg/injection, schedule: Q## X016 (ip), vehicle: saline) was 151 % of control. For the same molecule, the T/C (dose: 32.0 mg/kg/injection, schedule: Q## X032 (ip), vehicle: saline) was 168 % of control and 169 % of control, the T/C (dose: 36.0 mg/kg/injection, schedule: Q01DX009 (oral), vehicle: saline) was 106 % of control and the T/C (dose: 40.0 mg/kg/injection, schedule: Q01DX001 (oral), vehicle: saline) was 118 % of control. The T/C (dose: 40.0 mg/kg/injection, schedule: Q## X032 (ip), vehicle: saline) was 166 % of control, the T/C (dose: 45.0 mg/kg/injection, schedule: Q01DX001 (ip), vehicle: carboxymethylcellulose (CMC)) was 157 % of control and the T/C (dose: 48.0 mg/kg/injection, schedule: Q01DX009 (oral), vehicle: saline) was 90 % of control. The T/C (dose: 48.0 mg/kg/injection, schedule: Q## X008 (ip), vehicle: saline) was 191 % of control, the T/C (dose: 60.0 mg/kg/injection, schedule: Q01DX001 (oral), vehicle: saline) was 124 % of control and the T/C (dose: 64.0 mg/kg/injection, schedule: Q## X008 (ip), vehicle: saline) was 204 % of control and 229 % of control. For the same molecule, the T/C (dose: 64.0 mg/kg/injection, schedule: Q## X024 (ip), vehicle: saline) was 88 % of control, the T/C (dose: 90.0 mg/kg/injection, schedule: Q01DX001 (oral), vehicle: saline) was 124 % of control and the T/C (dose: 90.0 mg/kg/injection, schedule: Q01DX001 (sc), vehicle: saline) was 118 % of control. The T/C (dose: 96.0 mg/kg/injection, schedule: Q## X008 (ip), vehicle: saline) was 114 % of control, the T/C (dose: 100.0 mg/kg/injection, schedule: Q01DX001 (ip), vehicle: saline) was 117 % of control and the T/C (dose: 120.0 mg/kg/injection, schedule: Q01DX001 (ip), vehicle: saline) was 113 % of control and 87 % of control. For the same molecule, the T/C (dose: 180.0 mg/kg/injection, schedule: Q01DX001 (oral), vehicle: saline) was 101 % of control and the T/C (dose: 360.0 mg/kg/injection, schedule: Q01DX001 (oral), vehicle: saline) was 92 % of control.
With `C[N+]1(CC2CO2)CCOCC1` (stereo not drawn) the T/C (dose: 75.0 mg/kg/injection, schedule: Q01DX001 (ip), vehicle: saline) was 109 % of control, the T/C (dose: 150.0 mg/kg/injection, schedule: Q01DX001 (ip), vehicle: saline) was 106 % of control and the T/C (dose: 300.0 mg/kg/injection, schedule: Q01DX001 (ip), vehicle: saline) was 96 % of control.
